Counter-ions that a name gives are not always drawn.
Biological target: T1, HCV polymerase (Hepatitis C virus genotype 1b, UniProt P26663)
T1 construct: a region encoding NS5B (J Virol 1991 March, 65(3), 1105-13, 544 amino acids after deletion of 47 amino acids on the C-terminal); 6xHis (C); made in house; host or cells: Escherichia coli
Assay: biochemical
Set-up: species or system HCV BK strain
How it was run: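 Recombinant HCV BK-strain NS5B (C-terminal 47 aa deleted, His6-tagged, E. coli), 0.5 μg/ml, run with 5 μg/ml in vitro-transcribed RNA template (polyU/3′X), ATP/GTP/CTP 50 μM, UTP 2 μM plus [3H]UTP, pH 7.5, 25° C, 90 min. TCA-precipitated RNA counted by scintillation; IC50 from activity with vs without compound.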

T1 sequence (P26663 2420-2963): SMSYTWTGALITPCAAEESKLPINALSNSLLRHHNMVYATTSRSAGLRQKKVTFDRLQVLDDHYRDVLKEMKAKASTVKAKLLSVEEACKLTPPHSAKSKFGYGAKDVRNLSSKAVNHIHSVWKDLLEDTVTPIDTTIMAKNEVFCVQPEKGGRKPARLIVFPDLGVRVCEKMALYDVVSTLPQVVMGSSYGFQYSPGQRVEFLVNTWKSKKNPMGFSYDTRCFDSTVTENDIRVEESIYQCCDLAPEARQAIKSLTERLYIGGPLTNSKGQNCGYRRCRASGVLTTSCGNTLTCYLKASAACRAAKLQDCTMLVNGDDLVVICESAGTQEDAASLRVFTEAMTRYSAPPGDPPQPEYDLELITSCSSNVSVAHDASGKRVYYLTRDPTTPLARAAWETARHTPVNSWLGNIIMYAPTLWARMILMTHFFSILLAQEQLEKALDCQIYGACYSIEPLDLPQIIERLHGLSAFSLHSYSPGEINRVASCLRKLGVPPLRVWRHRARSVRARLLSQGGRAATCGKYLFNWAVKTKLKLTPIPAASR

Compound | IC50
COc1ccc2c(c1)OCCn1c-2c(C2CCCCC2)c2ccc(C(=O)NC(C)(C)c3ncc(-c4ccc(CO)cc4)[nH]3)cc21 [Example 2-545, N-{1-[5-(4-hydroxymethylphenyl)-1H-imidazol-2-yl]-1-methylethyl}-12-cyclohexyl-3-methoxy-6,7-dihydro-5-oxa-7a-azadibenzo[a,e]azulene-9-carboxamide] | < 100 nM
COc1ccc2c(c1)OCCn1c-2c(C2CCCCC2)c2ccc(C(=O)NC(C)(C)c3ncc(-c4ccc(C(N)=O)cc4)[nH]3)cc21 [Example 2-546, N-{1-[5-(4-carbamoylphenyl)-1H-imidazol-2-yl]-1-methylethyl}-12-cyclohexyl-3-methoxy-6,7-dihydro-5-oxa-7a-azadibenzo[a,e]azulene-9-carboxamide] | < 100 nM
CNC(=O)c1ccc(-c2cnc(C(C)(C)NC(=O)c3ccc4c(C5CCCCC5)c5n(c4c3)CCOc3cc(OC)ccc3-5)[nH]2)cc1 [Example 2-547, N-{1-methyl-1-[5-(4-methylcarbamoylphenyl)-1H-imidazol-2-yl]ethyl}-12-cyclohexyl-3-methoxy-6,7-dihydro-5-oxa-7a-azadibenzo[a,e]azulene-9-carboxamide] | < 100 nM
COc1ccc2c(c1)OCCn1c-2c(C2CCCCC2)c2ccc(C(=O)NC(C)(C)c3ncc(-c4ccc(/C=C/C(=O)O)cc4)[nH]3)cc21 [Example 2-548, (E)-3-[4-(2-{1-[(12-cyclohexyl-3-methoxy-6,7-dihydro-5-oxa-7a-azadibenzo[a,e]azulene-9-carbonyl)amino]-1-methylethyl}-3H-imidazol-4-yl)phenyl]acrylic acid] | < 100 nM
O=C(CN1CCCCC1)Nc1ccccc1-c1cccc2c1OCCn1c-2c(C2CCCCC2)c2ccc(C(=O)O)cc21 [Example 2-549, 12-cyclohexyl-4-{2-[2-(piperidin-1-yl)acetylamino]phenyl}-6,7-dihydro-5-oxa-7a-azadibenzo[a,e]azulene-9-carboxylic acid] | < 100 nM
COc1ccc2c(c1)OCCn1c-2c(C2CCCCC2)c2ccc(C(=O)NC3(C(=O)Nc4cccc(/C=C/C(=O)O)c4)CCC3)cc21 [Example 2-550, (E)-3-[3-({1-[(12-cyclohexyl-3-methoxy-6,7-dihydro-5-oxa-7a-azadibenzo[a,e]azulene-9-carbonyl)amino]cyclobutanecarbonyl}amino)phenyl]acrylic acid] | < 100 nM
CCOc1ccc2c(c1)OCCn1c-2c(C2CCCCC2)c2ccc(C(=O)NC3(C(=O)Nc4cccc(/C=C/C(=O)O)c4)CCC3)cc21 [Example 2-551, (E)-3-[3-({1-[(12-cyclohexyl-3-ethoxy-6,7-dihydro-5-oxa-7a-azadibenzo[a,e]azulene-9-carbonyl)amino]cyclobutanecarbonyl}amino)phenyl]acrylic acid] | < 100 nM
CCOc1ccc2c(c1)OCCn1c-2c(C2CCCCC2)c2ccc(C(=O)NC3(C(=O)Nc4ccc(/C=C/C(=O)O)cc4OC)CCC3)cc21 [Example 2-552, (E)-3-[4-({1-[(12-cyclohexyl-3-ethoxy-6,7-dihydro-5-oxa-7a-azadibenzo[a,e]azulene-9-carbonyl)amino]cyclobutanecarbonyl}amino)-3-methoxyphenyl]acrylic acid] | < 100 nM
O=C(O)c1ccc2c(C3CCCCC3)c3n(c2c1)CCOc1c(-c2ccccc2CCN2CCCCC2)cccc1-3 [Example 2-553, 12-cyclohexyl-4-{2-[2-(piperidin-1-yl)ethyl]phenyl}-6,7-dihydro-5-oxa-7a-azadibenzo[a,e]azulene-9-carboxylic acid monohydrochloride] | < 100 nM
O=C(O)c1ccc2c(C3CCCCC3)c3n(c2c1)CCOc1c(-c2ccccc2NCCN2CCCCC2)cccc1-3 [Example 2-554, 12-cyclohexyl-4-{2-[2-(piperidin-1-yl)ethylamino]phenyl}-6,7-dihydro-5-oxa-7a-azadibenzo[a,e]azulene-9-carboxylic acid dihydrochloride] | < 100 nM
CC(C)Oc1ccc2c(c1)OCCn1c-2c(C2CCCCC2)c2ccc(C(=O)O)cc21 [Example 2-555, 12-cyclohexyl-3-isopropoxy-6,7-dihydro-5-oxa-7a-azadibenzo[a,e]azulene-9-carboxylic acid] | < 100 nM
CC(C)Oc1ccc2c(c1)OCCn1c-2c(C2CCCCC2)c2ccc(C(=O)NC3(C(=O)Nc4ccc(/C=C/C(=O)O)cc4)CCC3)cc21 [Example 2-556, (E)-3-[4-({1-[(12-cyclohexyl-3-isopropoxy-6,7-dihydro-5-oxa-7a-azadibenzo[a,e]azulene-9-carbonyl)amino]cyclobutanecarbonyl}amino)phenyl]acrylic acid] | < 100 nM
CN(C)C(=O)C1Cn2c(c(C3CCCCC3)c3ccc(C(=O)O)cc32)-c2ccccc2O1 (centres unmarked) [Example 3-4, 12-cyclohexyl-6-dimethylcarbamoyl-6,7-dihydro-5-oxa-7a-azadibenzo[a,e]azulene-9-carboxylic acid] | < 100 nM
O=C(O)c1ccc2c(C3CCCCC3)c3n(c2c1)COc1ccccc1-3 [Example 4-2, 11-cyclohexyl-5-oxa-6a-azabenzo[a]fluorene-8-carboxylic acid] | 100 to 1000 nM
O=C(O)c1ccc2c(C3CCCCC3)c3n(c2c1)CCCc1ccccc1-3 [Example 5-2, 13-cyclohexyl-6,7-dihydro-5H-benzo[3,4]azepino[1,2-a]indole-10-carboxylic acid] | < 100 nM
O=C(O)c1ccc2c(C3CCCCC3)c3n(c2c1)Cc1ccccc1-3 [Example 5-3, 11-cyclohexyl-6H-isoindolo[2,1-a]indole-3-carboxylic acid] | 100 to 1000 nM
O=C(O)c1ccc2c(C3CCCCC3)c3n(c2c1)CCc1ccccc1-3 [Example 5-4, 12-cyclohexyl-5,6-dihydroindolo[2,1-a]isoquinoline-9-carboxylic acid] | 100 to 1000 nM
O=C(O)c1ccc2c(C3CCCCC3)c3n(c2c1)C(O)c1ccccc1-3 (centres unmarked) [Example 5-6, 11-cyclohexyl-6-hydroxy-6H-isoindolo[2,1-a]indole-3-carboxylic acid] | 100 to 1000 nM
O=C(O)c1ccc2c(C3CCCCC3)c3n(c2c1)CCCn1cccc1-3 [Example 6-2, 13-cyclohexyl-6,7-dihydro-5H-pyrrolo[2′,1′:3,4][1,4]diazepino[1,2-a]indole-10-carboxylic acid] | 100 to 1000 nM
O=C(O)c1ccc2c(C3CCCCC3)c3n(c2n1)CCOc1cc(OCc2cc(N4CCCC4=O)ccc2N2CCOCC2)ccc1-3 [Example 7-4, 12-cyclohexyl-3-[2-(morpholin-4-yl)-5-(2-oxopyrrolidin-1-yl)benzyloxy]-6,7-dihydro-5-oxa-7a,8-diazadibenzo[a,e]azulene-9-carboxylic acid dihydrochloride] | < 100 nM
CS(=O)(=O)c1ccc(N2CCOCC2)c(COc2ccc3c(c2)OCCn2c-3c(C3CCCCC3)c3ccc(C(=O)O)nc32)c1 [Example 7-5, 12-cyclohexyl-3-[5-methanesulfonyl-2-(morpholin-4-yl)benzyloxy]-6,7-dihydro-5-oxa-7a,8-diazadibenzo[a,e]azulene-9-carboxylic acid monohydrochloride] | < 100 nM
CC(=O)N(C)c1ccc(N2CCOCC2)c(COc2ccc3c(c2)OCCn2c-3c(C3CCCCC3)c3ccc(C(=O)O)nc32)c1 [Example 7-6, 3-[5-(N-acetyl-N-methylamino)-2-(morpholin-4-yl)benzyloxy]-12-cyclohexyl-6,7-dihydro-5-oxa-7a,8-diazadibenzo[a,e]azulene-9-carboxylic acid dihydrochloride] | < 100 nM
CS(=O)(=O)N1CCN(c2ccc(N3CCCC3=O)cc2COc2ccc3c(c2)OCCn2c-3c(C3CCCCC3)c3ccc(C(=O)O)nc32)CC1 [Example 7-7, 12-cyclohexyl-3-[2-(4-methanesulfonylpiperazin-1-yl)-5-(2-oxopyrrolidin-1-yl)benzyloxy]-6,7-dihydro-5-oxa-7a,8-diazadibenzo[a,e]azulene-9-carboxylic acid dihydrochloride] | < 100 nM
O=C(O)c1ccc2c(C3CCCCC3)c3n(c2n1)CCOc1cc(OCc2ccccc2)ccc1-3 [Example 7-8, 3-benzyloxy-12-cyclohexyl-6,7-dihydro-5-oxa-7a,8-diazadibenzo[a,e]azulene-9-carboxylic acid] | < 100 nM
COc1ccc2c(c1)OCCn1c-2c(C2CCCCC2)c2ccc(C(=O)O)nc21 [Example 7-9, 12-cyclohexyl-3-methoxy-6,7-dihydro-5-oxa-7a,8-diazadibenzo[a,e]azulene-9-carboxylic acid] | < 100 nM
COc1ccc2c(c1)OCCn1c-2c(C2CCCCC2)c2ccc(C(=O)NC3(C(=O)Nc4ccc(/C=C/C(=O)O)cc4)CCC3)nc21 [Example 7-10, (E)-3-[4-({1-[(12-cyclohexyl-3-methoxy-6,7-dihydro-5-oxa-7a,8-diazadibenzo[a,e]azulene-9-carbonyl)amino]cyclobutanecarbonyl}amino)phenyl]acrylic acid] | < 100 nM
O=C(O)c1ccc2c(C3CCCCC3)c3n(c2n1)CCN(CC(=O)N1CCOCC1)c1ccccc1-3 [Example 8-4, 12-cyclohexyl-5-[2-oxo-2-(morpholin-4-yl)ethyl]-6,7-dihydro-5H-5,7a,8-triazadibenzo[a,e]azulene-9-carboxylic acid dihydrochloride] | < 100 nM
O=C(O)c1ccc2c(C3CCCCC3)c3n(c2n1)CCN(CCN1CCCCC1)c1cc(Cl)ccc1-3 [Example 8-5, 3-chloro-12-cyclohexyl-5-(2-piperidin-1-ylethyl)-6,7-dihydro-5H-5,7a,8-triazadibenzo[a,e]azulene-9-carboxylic acid trihydrochloride] | < 100 nM
CCN1CCN(CCN2CCn3c(c(C4CCCCC4)c4ccc(C(=O)O)nc43)-c3ccc(Cl)cc32)CC1 [Example 8-6, 3-chloro-12-cyclohexyl-5-[2-(4-ethylpiperazin-1-yl)ethyl]-6,7-dihydro-5H-5,7a,8-triazadibenzo[a,e]azulene-9-carboxylic acid trihydrochloride] | < 100 nM
